From patent US20040002537A1, “Use of statins in the treatment of autoimmune disease” (priority 2002, published 2004)

Key:
[1] = tested on: microglia and astrocytes; conditions: cited from earlier work
[2] = tested on: MOG p35-55-induced EAE in C57BL/6 mice; assay: MOG p35-55-induced chronic EAE, oral atorvastatin; format: in vivo, mouse; conditions: daily oral
[3] = tested on: PLP p139-151-induced EAE in SJL/J mice; assay: PLP p139-151-induced relapsing EAE, oral atorvastatin; format: in vivo, mouse
[4] = tested on: MBP Ac1-11-induced EAE in MBP Ac1-11 Tg mice; assay: MBP Ac1-11-induced acute EAE, oral atorvastatin; format: in vivo, mouse; conditions: FIG. 1E
[5] = tested on: PLP p139-151-stimulated spleen cells
Experimental: Ag Specific Ex-vivo T Cell Proliferation Assay. […] Lymph node cells (LNCs) or splenocytes were cultured in vitro for specific proliferative response to the specific encephalogenic peptide (PLP 139-151, MOG 35-55 or MBP Ac1-11, respectively). LNCs were prepared in 96-well microtiter plates in a volume of 0.2 ml/well at a concentration of 5×10^6 cells/ml. The culture medium consisted of enriched RPMI (RPMI 1640 supplemented with L-glutamine [2 mM], sodium pyruvate [1 mM], nonessential amino acids [0.1 mM], penicillin [100 U/ml], streptomycin [0.1 mg/ml], 2-ME [5×10^−5 M]) supplemented with 1% autologous fresh normal mouse serum with the addition of different peptides concentrations. Cultures were incubated in 37° C. in humidified air containing 5% CO2. Cultures taken from SJL/J or C57BL/6 mice were incubated for 72h whereas cultures from MBPAc-1-11 Tg mice were incubated for 48 hours and then were pulsed for 18 hr with 1 μCi/well of [^3H] thymidine. The cells were then harvested and counted in a β counter.

[6] = tested on: Th1/Th2 cytokines (IL-2, IFN-γ, IL-4, IL-10); assay: Cytokine profile determination by ELISA, ex vivo lymph node and spleen cells; format: in vivo, mouse
Experimental: Cytokine Profile Determination. Lymph node cells and spleen cells from EAE donors were stimulated in vitro (2.5×10^6 cells/ml) in 24-well plates with or without the encephalogenic peptide or with […] as positive control. Cell culture supernatants were collected at different time points for measurements of cytokine levels: 48 hours for IL-2 , 72 hours for IFN-γ and TNF α, and 120 hours for […]. Cytokine levels were determined using specific ELISA kits for the corresponding cytokines according to the manufacturer's protocols (PharMingen, San Diego, Calif., USA).

[7] = tested on: STAT6; assay: Western blot for STAT6 phosphorylation in draining lymph node cells of treated mice; format: in vivo, mouse; conditions: SJL/J mice, 1 mg/kg and 10 mg/kg oral, 10 days after EAE induction, FIG. 5 lanes 2 and 3
Experimental: (§1) Western Blot Analysis for STAT-6 and STAT-4 Phosphorylation. Western Blot analysis was performed as described in Garren et al. (2001) Immunity 15:15, with minor modifications. Lymph nodes from control and atorvastatin-treated mice were homogenized in T-PER protein extraction buffer (Pierce,), with 20 μg/ml aprotinin, 20 μg/ml leupeptin, 1.6 mM Pefablock SC (Roche), 10 mM NaF, 1 mM Na3VO4 and 1 mM Na4P2O7 (Sigma, St. Louis, Mo.). All procedures were handled on ice. As a positive control, lymph node cells from naive mice were isolated and cultured for one hour with mouse recombinant IL-4 (10 ng/ml) or INF-γ (100 units/ml), for STAT6 and STAT4 expression respectively. Protein concentrations were determined by BCA protein assay (Pierce). Lysate was added to 3×SDS loading buffer (Cell Signaling Technology) with 40 mM DTT. Products were separated by electrophoresis on a 4-15% SDS-PAGE gradient gel (BioRad). Pre-stained markers (Invitrogen) were used to determine MW. Gels were blotted to PVDF membranes at 100 V in 25 mM Tris, 192 mM glycine and 20% (v/v) methanol, then blocked 1 hr at RT with Tris-buffered saline (TBS) containing 0.1% Tween-20 and 5% nonfat dry milk. […]

[8] = tested on: MHC II; conditions: through the effect on the CIITA p IV gene; cited from earlier work
[9] = tested on: STAT6; assay: Western blot for STAT6 phosphorylation, naive lymph node cells cultured with IL-4 (positive control); format: cell-based, mouse; conditions: 10 ng/ml for one hour, FIG. 5 lane 4
Experimental: as §1

CC[C@H](C)C(=O)O[C@H]1C[C@@H](C)C=C2C=C[C@H](C)[C@H](CC[C@@H]3C[C@@H](O)CC(=O)O3)[C@H]21 [lovastatin]
Production of iNOS and proinflammatory cytokines (TNFα, IL-1β and IL-6) [1]: inhibited production

CC(C)c1c(C(=O)Nc2ccccc2)c(-c2ccccc2)c(-c2ccc(F)cc2)n1CC[C@@H](O)C[C@@H](O)CC(=O)O [atorvastatin]
EAE clinical score, treatment starting at EAE onset ([2]; C57Bl/6 female mice, 1 mg/kg or 10 mg/kg, FIG. 1A): suppressed EAE induction
EAE clinical score, treatment after onset ([2]; C57Bl/6 mice, FIG. 1B): ameliorated EAE
Ongoing relapsing EAE, treatment begun after recovery from acute EAE ([3]; FIG. 1D): reversal of ongoing relapsing EAE
Prevention of relapsing EAE ([3]; treatment at onset, FIG. 1C): effective in prevention of relapsing EAE
Acute EAE progression [4]: successfully prevented acute EAE progression
PLP p139-151-specific proliferative responses (3H-thymidine incorporation) ([5]; cells from SJL/J mice treated with 1 or 10 mg/kg, FIG. 4A): suppressed in a dose-related fashion
Cell death in the in vitro cultures ([5]; lymphocytes from treated mice): not observed increased cell death
Th2 bias (proliferation and cytokines) in other strains ([6]; C57BL/6 and MBP Ac1-11-specific transgenic mice): almost identical Th2 bias
Secretion of IL-10 ([6]; SJL/J mice, 10 mg/kg, ELISA, FIG. 4E): observed at the higher treatment dose
Production of IL-2 ([6]; SJL/J mice, 1 and 10 mg/kg, ELISA, FIG. 4B): reduced, although to a much greater extent in mice treated with 10 mg/kg
Secretion of IFN-γ ([6]; SJL/J mice, both treatment doses (1 and 10 mg/kg), ELISA, FIG. 4C): dramatic reduction
IL-4 secretion ([6]; SJL/J mice, both treatment doses (1 and 10 mg/kg), ELISA, FIG. 4D): induced at both treatment doses
Phosphorylated STAT6 in lymph nodes (Western blot) [7]: phosphorylated STAT6 is seen
Expression of MHC II [8]: could inhibit the expression of MHC II

B1: mouse recombinant IL-4: mouse recombinant IL-4 (10 ng/ml), positive control for STAT6 phosphorylation (protein, UniProt P07750 21-140, looked up)
Interleukin-4: HIHGCDKNHLREIIGILNEVTGEGTPCTEMDVPNVLTATKNTTESELVCRASKVLRIFYLKHGKTPCLKKNSSVLMELQRLFRAFRCLDSSISCTMNESKSTSLKDFLESLKSIMQMDYS
Phosphorylated STAT6 in naive lymph node cells (Western blot) [9]: phosphorylated STAT6 is seen
